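Interpolation was linear, between the two tested concentrations surrounding the appropriate level; five concentrations were tested over 48 hours in 96-well plates. Abbreviation: GI50, concentration required for 50% inhibition of growth.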 Activity calls are given as the source filed them. Cut-off read from the data, not from the text of the source: active = GI50 up to about 1.1 µM and inactive = higher.
Legend:
Test in all cases: NCI anticancer screen, dose series, 48 h
MOLT-4 = tested on: MOLT-4
OVCAR-4 = tested on: OVCAR-4
BT-549 = tested on: BT-549
U-251 = tested on: U-251
SNB-19 = tested on: SNB-19
HOP-62 = tested on: HOP-62
SW-620 = tested on: SW-620
HT-29 = tested on: HT-29
PC-3 = tested on: PC-3
Hs-578T = tested on: Hs-578T
SK-MEL-2 = tested on: SK-MEL-2
MDA-N = tested on: MDA-N
UACC-257 = tested on: UACC-257
UO-31 = tested on: UO-31
TK-10 = tested on: TK-10
IGROV-1 = tested on: IGROV-1
RXF 393 = tested on: RXF 393
COLO 205 = tested on: COLO 205
HCT-116 = tested on: HCT-116
786-0 = tested on: 786-0
T47D = tested on: T47D
NCI-H460 = tested on: NCI-H460
K562 = tested on: K562
MDA-MB-435 = tested on: MDA-MB-435
NCI-H226 = tested on: NCI-H226
SK-MEL-28 = tested on: SK-MEL-28
OVCAR-8 = tested on: OVCAR-8
HCT-15 = tested on: HCT-15
CCRF-CEM = tested on: CCRF-CEM
SNB-75 = tested on: SNB-75
KM12 = tested on: KM12
NCI-H23 = tested on: NCI-H23
A549 = tested on: A549
NCI/ADR-RES = tested on: NCI/ADR-RES
SK-OV-3 = tested on: SK-OV-3
UACC-62 = tested on: UACC-62
M14 = tested on: M14
SK-MEL-5 = tested on: SK-MEL-5
CAKI-1 = tested on: CAKI-1
MDA-MB-231 = tested on: MDA-MB-231
OVCAR-3 = tested on: OVCAR-3
SF-539 = tested on: SF-539
OVCAR-5 = tested on: OVCAR-5
SF-268 = tested on: SF-268
RPMI-8226 = tested on: RPMI-8226
MCF7 = tested on: MCF7
HCC 2998 = tested on: HCC 2998
EKVX = tested on: EKVX
SN12C = tested on: SN12C
HL-60 = tested on: HL-60
LOX IMVI = tested on: LOX IMVI
SF-295 = tested on: SF-295
HOP-92 = tested on: HOP-92
SR = tested on: SR
NCI-H522 = tested on: NCI-H522
A498 = tested on: A498
Malme-3M = tested on: Malme-3M

`COc1cc([C@@H]2c3cc4c(cc3[C@@H](NCCNCCO)[C@H]3COC(=O)[C@H]23)OCO4)cc(OC)c1O` was tested, and the GI50 (MOLT-4) was 0.016 µM (active), the GI50 (OVCAR-4) was 18.7 µM (inactive) and the GI50 (BT-549) was 1.92 µM (inactive). For the same molecule, the GI50 (U-251) was 0.501 µM (active), the GI50 (SNB-19) was 0.857 µM (active) and the GI50 (HOP-62) was 1.5 µM (inactive). The GI50 (SW-620) was 2.44 µM (inactive), the GI50 (HT-29) was 2.86 µM (inactive) and the GI50 (PC-3) was 2.67 µM (inactive). The GI50 (Hs-578T) was 1.89 µM (inactive), the GI50 (SK-MEL-2) was 2.15 µM (inactive) and the GI50 (MDA-N) was 4.35 µM (inactive). For the same molecule, the GI50 (UACC-257) was 7.85 µM (inactive), the GI50 (UO-31) was 11.6 µM (inactive) and the GI50 (TK-10) was 6.59 µM (inactive). The GI50 (IGROV-1) was 1.05 µM (active), the GI50 (RXF 393) was 1.53 µM (inactive) and the GI50 (COLO 205) was 2.38 µM (inactive). For the same molecule, the GI50 (HCT-116) was 2.4 µM (inactive), the GI50 (786-0) was 1.09 µM (active) and the GI50 (T47D) was 0.442 µM (active). The GI50 (NCI-H460) was 0.0525 µM (active), the GI50 (K562) was 1.71 µM (inactive) and the GI50 (MDA-MB-435) was 6.22 µM (inactive). For the same molecule, the GI50 (NCI-H226) was 1.12 µM (inactive), the GI50 (SK-MEL-28) was 2.14 µM (inactive) and the GI50 (OVCAR-8) was 2.09 µM (inactive). The GI50 (HCT-15) was 29.5 µM, the GI50 (CCRF-CEM) was 0.0432 µM (active) and the GI50 (SNB-75) was 1.1 µM (active). The GI50 (KM12) was 2.55 µM (inactive), the GI50 (NCI-H23) was 1.24 µM (inactive) and the GI50 (A549) was 0.785 µM (active). For the same molecule, the GI50 (NCI/ADR-RES) was > 100 µM (inactive), the GI50 (SK-OV-3) was 1.78 µM (inactive) and the GI50 (UACC-62) was 644 nM (active). For the same molecule, the GI50 (M14) was 3.79 µM (inactive), the GI50 (SK-MEL-5) was 1.15 µM (inactive) and the GI50 (CAKI-1) was 3.78 µM (inactive).
For `N#Cc1c(O)c(/C=N/c2ncccn2)c(=O)n2c1[nH]c1ccccc12`, the GI50 (MOLT-4) was > 100 µM (inactive), the GI50 (OVCAR-4) was > 100 µM (inactive) and the GI50 (MDA-MB-231) was > 100 µM (inactive). For the same molecule, the GI50 (OVCAR-3) was > 100 µM (inactive), the GI50 (BT-549) was > 100 µM (inactive) and the GI50 (U-251) was > 100 µM (inactive). The GI50 (SNB-19) was > 100 µM (inactive), the GI50 (SW-620) was > 100 µM (inactive) and the GI50 (HT-29) was > 100 µM (inactive). The GI50 (SF-539) was > 100 µM (inactive), the GI50 (OVCAR-5) was > 100 µM (inactive) and the GI50 (PC-3) was > 100 µM (inactive). For the same molecule, the GI50 (Hs-578T) was > 100 µM (inactive), the GI50 (SK-MEL-2) was > 100 µM (inactive) and the GI50 (MDA-N) was > 100 µM (inactive). The GI50 (UACC-257) was > 100 µM (inactive), the GI50 (SF-268) was > 100 µM (inactive) and the GI50 (RPMI-8226) was > 100 µM (inactive). The GI50 (UO-31) was > 100 µM (inactive), the GI50 (MCF7) was 88.9 µM (inactive) and the GI50 (HCC 2998) was > 100 µM (inactive). For the same molecule, the GI50 (TK-10) was > 100 µM (inactive), the GI50 (EKVX) was > 100 µM (inactive) and the GI50 (IGROV-1) was > 100 µM (inactive). The GI50 (SN12C) was > 100 µM (inactive), the GI50 (RXF 393) was > 100 µM (inactive) and the GI50 (HL-60) was > 100 µM (inactive). The GI50 (COLO 205) was > 100 µM (inactive), the GI50 (HCT-116) was > 100 µM (inactive) and the GI50 (786-0) was > 100 µM (inactive). For the same molecule, the GI50 (LOX IMVI) was > 100 µM (inactive), the GI50 (T47D) was > 100 µM (inactive) and the GI50 (SF-295) was > 100 µM (inactive). The GI50 (HOP-92) was > 100 µM (inactive), the GI50 (NCI-H460) was > 100 µM (inactive) and the GI50 (SR) was > 100 µM (inactive). For the same molecule, the GI50 (K562) was > 100 µM (inactive), the GI50 (MDA-MB-435) was > 100 µM (inactive) and the GI50 (NCI-H226) was > 100 µM (inactive). The GI50 (SK-MEL-28) was > 100 µM (inactive), the GI50 (NCI-H522) was > 100 µM (inactive) and the GI50 (OVCAR-8) was > 100 µM (inactive). The GI50 (HCT-15) was greater than 100 µM, the GI50 (CCRF-CEM) was > 100 µM (inactive) and the GI50 (SNB-75) was 44.1 µM (inactive). For the same molecule, the GI50 (KM12) was > 100 µM (inactive), the GI50 (NCI-H23) was > 100 µM (inactive) and the GI50 (A549) was > 100 µM (inactive). For the same molecule, the GI50 (NCI/ADR-RES) was > 100 µM (inactive), the GI50 (SK-OV-3) was > 100 µM (inactive) and the GI50 (M14) was > 100 µM (inactive). The GI50 (SK-MEL-5) was > 100 µM (inactive), the GI50 (CAKI-1) was > 100 µM (inactive) and the GI50 (A498) was > 100 µM (inactive). For the same molecule, the GI50 (Malme-3M) was > 100 µM (inactive).

From ChEMBL document CHEMBL1201862, “PubChem BioAssay data set” (2004)
